Read-outs that look alike come from different tables or passages of the source.
How the values were obtained:
[1] = system: all grouped isolates from India; assay: MIC by broth microdilution against all grouped isolates from India; format: cell-based, resistant bacterial strains
Protocol: (§1) In a typical study MIC tests were performed by broth microdilution in line with CLSI susceptibility testing standards. Bacterial inocula were prepared at ca. 1×10^6 CFU/mL by diluting 100-fold a 0.5 McFarland suspension in CA-MHB with TES. Microtiter plate wells containing 50 μL of antibacterial solutions at 2×the final concentrations were diluted 2-fold with 50 μL of inoculum to give a final inoculum of ca. 5×10^5 CFU/mL and desired test concentrations of antibacterial agents. Test microtiter plates were incubated according to CLSI guidelines and read visually. MIC values corresponded to the first well with no visible growth.
There was a marked improvement in antibacterial activity, compared to MEM alone, observed for the triple combinations, for MEM/AVI [4 mg/L]/EDTA [10 mM] and MEM/AVI [4 mg/L]/EDTA [20 mM], the reduction in MIC90 was 0.06 μg/mL and ≤0.002 μg/mL, respectively.

[2] = system: Non-Enterobacteriaceae (non-fermenter isolates); assay: MIC by broth microdilution against Non-Enterobacteriaceae; format: cell-based
Protocol: as §1

[3] = system: E. coli, K. pneumoniae, P. aeruginosa A. baumannii and E. cloacae; assay: Effects of body fluids on MIC, all tested isolates; format: cell-based, Gram-negatives clinical isolates
Protocol: Objective: The combinations of meropenem (MEM) in the presence of different concentrations of avibactam (AVI) and EDTA were tested. The triple combination test compounds were investigated for in-vitro activity in presence cation-adjusted Mueller Hinton broth (CA-MHB) and CA-MHB supplemented with different body fluids i.e. human serum (25% and 50%), pooled urine (25% and 50%), bovine Surfactant (1 and 5%) and human peritoneal fluid (25 and 50%) against the a set of Gram-negatives clinical isolates from India.
Method: The tolerance screening was performed on a total of 60 isolates to ascertain tolerance to body fluids and total 19 isolates including ATCC strains and non-duplicate clinically relevant Escherichia coli (n=6), Klebsiella pneumoniae (n=3), Pseudomonas aeruginosa (n=6) Acinetobacter baumannii (n=3) and Enterobacter cloacae (n=1) were selected prior to susceptibility testing. Tested compounds included Meropenem with AVI at 4 and EDTA at 10 mM (MEM/A4/E10), Meropenem with AVI at 4 and EDTA at 20 mM (MEM/A4/E20), Meropenem with AVI at 8 and EDTA at 10 mM (MEM/A8/E10), Meropenem with AVI at 8 and EDTA at 20 mM (MEM/A8/E20), Meropenem (MEM), Ceftriaxone with sulbactam at […] and EDTA at 10 mM (CRO/S10/E10), Ceftazidime-avibactam (CZA), Amikacin (AMK), Tigecycline and Minocycline. […]

E. coli = conditions: cited from earlier work

With C[C@@H](O)[C@H]1C(=O)N2C(C(=O)O)=C(S[C@@H]3CN[C@H](C(=O)N(C)C)C3)[C@H](C)[C@H]12 [Meropenem, (4R,5S,6S)-3-(((3S,5S)-5-(dimethylcarbamoyl)pyrrolidin-3-yl)thio)-6-((R)-1-hydroxyethyl)-4-methyl-7-oxo-1-azabicyclo[3.2.0]hept-2-ene-2-carboxylic acid] the MIC50 [1] was > 32 µg/mL, the MIC90 [1] was > 32 µg/mL and the MIC90 ([1]; MEM-NS isolates (n=534)) was > 32 µg/mL. For the same molecule, the MIC50 ([1]; all grouped isolates (606)) was >32 µg/mL, the MIC90 ([1]; all grouped isolates (606)) was > 32 µg/mL and the MIC50 [2] was > 32 µg/mL. The MIC90 [2] was > 32 µg/mL, the MIC50 ([2]; highly resistant strains) was >32 µg/mL and the MIC90 ([2]; highly resistant strains) was >32 µg/mL. The MIC90 ([2]; highly resistant strains, listed as MEM) was > 32 µg/mL, the MEM-NS isolates ([2]; n=284) was 88.9% and the MIC [3] was > 32 µg/mL. For the same molecule, the “CLSI Range of MIC” value (E. coli) was 8 to 60 ng/mL.
